In patent US5756491A, “Antiviral cobalt-organic compounds” (priority 1991, dated 1998):

Key:
[1] = test system: human foreskin fibroblast (HFF) cell monolayers; assay: Toxicity effects controls: sham-inoculated compound-treated HFF monolayers; type: cell-based; on Toxicity effects: key: +: toxic; -: no toxicity; ±: mild toxicity; T: toxicity effects interfered with CPE rating
From the text: (§1) With sufficient stirring, all the compounds completely dissolved.
In the tables, the symbols have the meaning indicated: […]

HSV-1 McKrae Strain [2] = assay: Direct virucidal efficacy against HSV-1 on HFF monolayers; type: cell-based; conditions: for effective virucidal concentration IC50 / effective virucidal concentration IC90: HSV-1
HFF cells = assay: MTT assay for cell cytotoxicity; type: cell-based, human; conditions: stationary cells
Experimental: Twenty-four hours prior to assay, HFF cells are plated into 96 well plates at a concentration of […] cells per well. After 24 h, the media is aspirated and […] of drug is added to the first row of wells and then diluted serially 1:5 using the automated Cetus Liquid Handling System in a manner similar to that used in the CPE assay. The plates are then incubated in a CO2 incubator at 37° C. for seven days. At this time, each well receives 50 microliters of […] solution of MTT in Dulbecco's Phosphate Buffered Saline. The plates are then incubated for an additional four hours. At this time, the media is removed and replaced with 100 μl of 0.04N hydrochloric acid in isopropanol. After shaking briefly, the plates are then read on a plate reader at 550 nm.

HSV-1 McKrae Strain [3] = assay: Intracellular antiviral activity against HSV-1 in HFF monolayers; type: cell-based; conditions: for antiviral efficacy (HSV-1 titer): Experiment 7 (Table 18), 24 h PI
Experimental: HSV-1 McKrae Strain was diluted to a final concentration of 10^5 PFU/ml in minimal essential medium (MEM). Hereinafter, this dilution is referred to as the HSV-1 Suspension for convenience.
as §1
HFF cell monolayers were inoculated with the HSV-Suspension prepared as above by absorption for thirty minutes at 37° C. After absorption of the virus, the inoculum was aspirated from the cell monolayers and the HSV-1 infected monolayers were rehydrated with medium containing the appropriate concentration of the solution of the compound by adding 500 microliters of each compound concentration to triplicate HSV-1 infected monolayers. All monolayers were incubated at 37° C. The developing HSV-1 cytopathology was monitored daily for two days by inverted light microscopy and titers were calculated by multiple […] analysis. For the intracellular anti-viral activity, "cell monolayer controls" were obtained using sham inoculated non-treated HFF cell monolayers along with the drug treated monolayers. "Positive controls" were obtained by using HSV-1 inoculated non-CTC compound treated HFF monolayers.

VZV = assay: In vitro assay with VZV on HFF monolayers; type: cell-based; conditions: for virucidal efficacy (VZV titer): Table 20, 7 days PI
Experimental: VZV was grown to a CPE level in vitro assays with VZV of 3-4+ on HFF cell monolayers. The VZV was scraped from the flask, centrifuged and the cell pellet was resuspended in 10 ml of complete medium. One hundred to 200 μl of the VZV cell associated inoculum was inoculated onto confluent HFF cell monolayers by absorption for 60 minutes at 37° C. After absorption of the virus, the inoculum was aspirated from the cell monolayers.
The VZV-infected monolayers were rehydrated with medium containing the appropriate concentrations of compounds to be tested. All monolayers were incubated at 37° C. Development of VZV cytopathology was monitored daily for 7 days by inverted light microscopy. Titers were calculated by multiple regression analysis.
Sham-inoculated, non-treated HFF cell monolayers were included among with the drug-treated monolayers as cell monolayer controls.
VZV inoculated, non-treated HFF monolayers were included as positive controls.

CC([O-])=CC(C)=NCCN=C(C)C=C(C)[O-].Cc1ncc[nH]1.Cc1ncc[nH]1.[Br-].[Co+3] [Compound 96]
0 PFU/ml: virucidal efficacy (HSV-1 titer) (HSV-1 McKrae Strain [2]; Experiment 2 (Table 5), 24 h PI, 1 mg/ml) | virucidal efficacy (HSV-1 titer) (HSV-1 McKrae Strain [2]; Experiment 2 (Table 5), 48 h PI, 1 mg/ml) | virucidal efficacy (HSV-1 titer) (HSV-1 McKrae Strain [2]; Experiment 3 (Table 8), 24 h PI, 1 mg/ml) | virucidal efficacy (HSV-1 titer) (HSV-1 McKrae Strain [2]; Experiment 4 (Table 9), 24 h PI, Run 1, 5 mg/ml) | virucidal efficacy (HSV-1 titer) (HSV-1 McKrae Strain [2]; Experiment 4 (Table 9), 24 h PI, Run 2, 1 mg/ml) | virucidal efficacy (HSV-1 titer) (HSV-1 McKrae Strain [2]; Experiment 4 (Table 9), 24 h PI, Run 2, 5 mg/ml) | virucidal efficacy (HSV-1 titer) (HSV-1 McKrae Strain [2]; Experiment 5 (Table 12), 24 h PI, Run 1, 1 mg/ml) | virucidal efficacy (HSV-1 titer) (HSV-1 McKrae Strain [2]; Experiment 5 (Table 12), 24 h PI, Run 1, 5 mg/ml) | virucidal efficacy (HSV-1 titer) (HSV-1 McKrae Strain [2]; Experiment 5 (Table 12), 24 h PI, Run 2, 0.1 mg/ml) | virucidal efficacy (HSV-1 titer) (HSV-1 McKrae Strain [2]; Experiment 5 (Table 12), 24 h PI, Run 2, 1 mg/ml) | virucidal efficacy (HSV-1 titer) (HSV-1 McKrae Strain [2]; Experiment 5 (Table 12), 24 h PI, Run 2, 5 mg/ml) | virucidal efficacy (HSV-1 titer) (HSV-1 McKrae Strain [2]; Experiment 6 (Table 16), 24 h PI, 0.5 mg/ml) | virucidal efficacy (HSV-1 titer) (HSV-1 McKrae Strain [2]; Experiment 6 (Table 16), 24 h PI, 1 mg/ml) | virucidal efficacy (HSV-1 titer) (HSV-1 McKrae Strain [2]; Experiment 6 (Table 16), 24 h PI, 2 mg/ml) | virucidal efficacy (HSV-1 titer) (HSV-1 McKrae Strain [2]; Experiment 6 (Table 16), 24 h PI, 5 mg/ml) | antiviral efficacy (HSV-1 titer) (HSV-1 McKrae Strain [3]; 2 mg/ml) | antiviral efficacy (HSV-1 titer) (HSV-1 McKrae Strain [3]; 5 mg/ml) | virucidal efficacy (VZV titer) (VZV; 2 mg/ml) | virucidal efficacy (VZV titer) (VZV; 5 mg/ml)
500 to 1000 mg/L: effective virucidal concentration IC50 (HSV-1 McKrae Strain [3]; Experiment 7 (Table 19), HSV-1)
a lack of toxicity: toxicity at 1 mg/ml (comment) [1]
+: toxicity effects ([1]; Experiment 5 (Table 13), 48 h, 5 mg/ml)
10^2 PFU/ml: virucidal efficacy (HSV-1 titer) (HSV-1 McKrae Strain [2]; Experiment 4 (Table 9), 24 h PI, Run 2, 0.1 mg/ml) | virucidal efficacy (HSV-1 titer) (HSV-1 McKrae Strain [2]; Experiment 5 (Table 12), 24 h PI, Run 1, 0.1 mg/ml) | antiviral efficacy (HSV-1 titer) (HSV-1 McKrae Strain [3]; 0.1 mg/ml) | virucidal efficacy (VZV titer) (VZV; 0.01 mg/ml)
toxicity observed: toxicity to HFF monolayers (comment) ([1]; Experiment 6 comment, more pronounced at 0.5 and 0.1 mg/ml, cell rounding, detaching, granularity)
100 mg/L: effective virucidal concentration IC50 (HSV-1 McKrae Strain [2]; Experiment 2 (Table 6)) | effective virucidal concentration IC50 (HSV-1 McKrae Strain [2]; Experiment 6 (Table 17))
10^5 PFU/ml: virucidal efficacy (HSV-1 titer) (HSV-1 McKrae Strain [2]; Experiment 3 (Table 8), 24 h PI, 0.001 mg/ml) | virucidal efficacy (HSV-1 titer) (HSV-1 McKrae Strain [2]; Experiment 3 (Table 8), 48 h PI, 1 mg/ml) | virucidal efficacy (HSV-1 titer) (HSV-1 McKrae Strain [2]; Experiment 5 (Table 12), 24 h PI, Run 1, 0.0001 mg/ml)
reduction in efficacy: efficacy in virucidal assay (comment) (HSV-1 McKrae Strain [2]; Experiment 6 comment, reduction in toxicity resulted in it)
100 to 1000 mg/L: effective virucidal concentration IC50 (HSV-1 McKrae Strain [2]; Experiment 5 (Table 14))
-: toxicity effects ([1]; Experiment 3 (Table 7), 24 h PI, 0.001 mg/ml) | toxicity effects ([1]; Experiment 3 (Table 7), 24 h PI, 0.01 mg/ml) | toxicity effects ([1]; Experiment 3 (Table 7), 24 h PI, 0.1 mg/ml) | toxicity effects ([1]; Experiment 3 (Table 7), 24 h PI, 1 mg/ml) | toxicity effects ([1]; Experiment 3 (Table 7), 48 h PI, 0.001 mg/ml) | toxicity effects ([1]; Experiment 3 (Table 7), 48 h PI, 0.01 mg/ml) | toxicity effects ([1]; Experiment 3 (Table 7), 48 h PI, 0.1 mg/ml) | toxicity effects ([1]; Experiment 3 (Table 7), 48 h PI, 1 mg/ml) | toxicity effects ([1]; Experiment 4 (Table 10), 24 h, 0.001 mg/ml) | toxicity effects ([1]; Experiment 4 (Table 10), 24 h, 0.01 mg/ml) | toxicity effects ([1]; Experiment 4 (Table 10), 24 h, 0.5 mg/ml) | toxicity effects ([1]; Experiment 4 (Table 10), 24 h, 1 mg/ml) | toxicity effects ([1]; Experiment 4 (Table 10), 48 h, 0.001 mg/ml) | toxicity effects ([1]; Experiment 4 (Table 10), 48 h, 0.01 mg/ml) | toxicity effects ([1]; Experiment 4 (Table 10), 48 h, 0.5 mg/ml) | toxicity effects ([1]; Experiment 5 (Table 13), 24 h, 0.00 mg/ml (so in the source)) | toxicity effects ([1]; Experiment 5 (Table 13), 24 h, 0.01 mg/ml) | toxicity effects ([1]; Experiment 5 (Table 13), 24 h, 0.5 mg/ml) | toxicity effects ([1]; Experiment 5 (Table 13), 48 h, 0.00 mg/ml (so in the source)) | toxicity effects ([1]; Experiment 5 (Table 13), 48 h, 0.01 mg/ml) | toxicity effects ([1]; Experiment 5 (Table 13), 48 h, 0.5 mg/ml) | toxicity effects ([1]; Experiment 6 (Table 15), 48 h, 0.001 mg/ml) | toxicity effects ([1]; Experiment 6 (Table 15), 48 h, 0.01 mg/ml) | toxicity effects ([1]; Experiment 6 (Table 15), 48 h, 1 mg/ml)
10 mg/L: effective virucidal concentration IC50 (VZV; Table 21, VZV)
> 1000 mg/L: effective virucidal concentration IC90 (HSV-1 McKrae Strain [2]; Experiment 4 (Table 11)) | effective virucidal concentration IC90 (HSV-1 McKrae Strain [2]; Experiment 5 (Table 14))
T?: virucidal efficacy (VZV titer) (VZV; 0.1 mg/ml, toxicity observation questionable)
10^3 PFU/ml: virucidal efficacy (HSV-1 titer) (HSV-1 McKrae Strain [2]; Experiment 5 (Table 12), 24 h PI, Run 2, 0.0001 mg/ml) | virucidal efficacy (HSV-1 titer) (HSV-1 McKrae Strain [2]; Experiment 5 (Table 12), 24 h PI, Run 2, 0.001 mg/ml) | virucidal efficacy (HSV-1 titer) (HSV-1 McKrae Strain [2]; Experiment 5 (Table 12), 24 h PI, Run 2, 0.01 mg/ml)
10^6 PFU/ml: virucidal efficacy (HSV-1 titer) (HSV-1 McKrae Strain [2]; Experiment 2 (Table 5), 48 h PI, 0.01 mg/ml)
> 74 MCG/ML: toxicity IC50, MTT toxicity (HFF cells)
10^4 PFU/ml: virucidal efficacy (HSV-1 titer) (HSV-1 McKrae Strain [2]; Experiment 2 (Table 5), 24 h PI, 0.001 mg/ml) | virucidal efficacy (HSV-1 titer) (HSV-1 McKrae Strain [2]; Experiment 4 (Table 9), 24 h PI, Run 2, 0.01 mg/ml) | virucidal efficacy (VZV titer) (VZV; 0.001 mg/ml)
